Results published in PubChem BioAssay (NCI).
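Briefly, cells in 96-well plates were exposed to five compound concentrations for 48 h, and endpoints were estimated by linear interpolation. TGI marks complete inhibition of growth.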

How the values were obtained:
Test in all cases: inhibition of tumour cell growth, NCI panel, 48 h
[1] = tested on: K-562 leukemia
[2] = tested on: IGROV1 ovarian
[3] = tested on: BT-549 breast
[4] = tested on: CAKI-1 renal
[5] = tested on: SNB-19 CNS
[6] = tested on: UO-31 renal
[7] = tested on: MOLT-4 leukemia
[8] = tested on: U251 CNS
[9] = tested on: EKVX NSCLC
[10] = tested on: COLO 205 colon

Row | SMILES | TGI [1] [µM] | TGI [2] [µM] | TGI [3] [µM] | TGI [4] [µM] | TGI [5] [µM] | TGI [6] [µM] | TGI [7] [µM] | TGI [8] [µM] | TGI [9] [µM] | TGI [10] [µM]
1 | Cc1nc(-c2cc3ccccc3oc2=O)cs1 | > 100 | > 100 | 31 | > 100 | > 100 | > 100 | > 100 | > 100 | > 100 | > 100
2 | C[C@H](C1CC2(C)OC2(C)C(=O)O1)[C@H]1CC[C@H]2[C@@H]3[C@@H]4O[C@@H]4[C@@]4(O)CC=CC(=O)[C@]4(C)[C@H]3CC[C@]12C (stereo not given in full) | > 50 | > 50 | > 50 | > 50 | > 50 | > 50 | > 50 | > 50 | > 50 | > 50
3 | CCOC1=C(c2ccccc2)N2CCCCC2O1 (stereo not given) | > 47.5 | > 51.4 | 26.3 | > 84.2 | > 100 | > 79.8 | > 73 | > 100 | > 100 | 4.7
4 | Cc1nc(Nc2ccccc2Cl)sc1C(=O)CC(=O)C(N)=O | > 100 | > 100 | > 100 | > 100 | > 100 | > 100 | > 100 | > 100 | > 100 | > 100
5 | COc1cc2nc(-c3cccs3)nc(Nc3cccc(Cl)c3)c2cc1OC | > 100 | > 100 | > 100 | > 100 | > 100 | > 100 | > 100 | > 100 | > 100 | > 100
6 | O=[Se](O)O | > 100 | 2.43 | 39 | 97.1 | > 22 | 7.36 | > 100 | 2.82 | 15.7 | > 60.3
7 | CCOC(=O)c1cc(Br)c(-c2onc(C)c2Br)[nH]1 | > 100 | > 100 | > 100 | > 100 | 74.8 | > 100 | > 100 | 42.6 | > 100 | > 100
8 | COc1ccccc1NC(=O)CC(=O)NN | > 100 | > 100 | > 100 | > 100 | > 100 | > 100 | > 100 | > 100 | > 100 | > 100
9 | O=C1/C(=C/c2cccc3ccccc23)CCc2ccc([N+](=O)[O-])cc21 | > 100 | > 100 | 45.5 | > 100 | 43.7 | > 100 | > 100 | 39.4 | > 100 | > 100
10 | Cc1c2cccc-2ccc2c3ccccc3n(C(=O)c3ccc(Cl)cc3)c12 | > 100 | > 100 | > 100 | > 100 | > 100 | > 100 | > 100 | > 100 | > 100 | > 100
11 | CC(C)CCOC(=O)NC(Nc1ccc(F)cc1)(C(F)(F)F)C(F)(F)F | > 100 | > 100 | > 100 | > 100 | > 100 | 36.5 | 76.8 | > 100 | > 100 | 42.1
12 | CC1(C)CC[C@]2(C(=O)O)CC[C@]3(C)[C@H](C(=O)C=C4[C@@]5(C)C=C(C#N)C(=O)C(C)(C)[C@@H]5CC[C@]43C)[C@@H]2C1 | 27.1 | 7.15 | 4.11 | 3.46 | 3.64 | 6.29 | 13.9 | 3.01 | 9.68 | 1.49
13 | Clc1ccc(C2=CCN3CC=C(c4ccc(Cl)cc4)C23)cc1 | 45.2 | 21.9 | 24 | 27.4 | 31.6 | 20 | 28 | 23.7 | 31.6 | 6.28
14 | CC(CNC(N)=O)NC(N)=O (stereo not given) | > 100 | > 100 | > 100 | > 100 | > 100 | > 100 | > 100 | > 100 | > 100 | > 100
15 | NCCSCCC(=O)O | > 100 | > 100 | > 100 | > 100 | > 100 | > 100 | > 100 | > 67.4 | > 100 | > 74.3
16 | Oc1ccc(Oc2cc3c(cc2Oc2ccc(O)cc2)-c2nc-3nc3[nH]c(nc4nc(nc5[nH]c(n2)c2cc(Oc6ccc(O)cc6)c(Oc6ccc(O)cc6)cc52)-c2cc(Oc5ccc(O)cc5)c(Oc5ccc(O)cc5)cc2-4)c2cc(Oc4ccc(O)cc4)c(Oc4ccc(O)cc4)cc32)cc1 | > 100 | > 100 | > 100 | > 100 | > 100 | > 100 | > 100 | > 100 | > 100 | > 100
17 | COC1=CC(=O)N(C)C(O)C1(C#N)OC1OC(CO)C(O)C(O)C1O (stereo not given) | > 10 | > 100 | > 100 | > 100 | > 100 | > 100 | > 100 | > 100 | > 100 | > 100
18 | COc1cccc(C2c3cc4c(cc3OC(Nc3ccccc3)C2C)OCO4)c1O (stereo not given) | 15 | 35.5 | 38.8 | 49.1 | 74 | 32.4 | 16 | 23.2 | > 55.9 | > 35.6
19 | Cc1ccc(S(=O)(=O)NC(=O)C2=C3SCCN3C(=O)N(S(=O)(=O)c3ccc(C)cc3)C2c2ccccc2)cc1 (stereo not given) | > 100 | > 100 | > 100 | > 100 | > 100 | > 100 | > 100 | > 100 | > 100 | 43.6
20 | CC(C)=CCC[C@@H](C)C1=C(O)C(Nc2ccccc2I)=C(C)C(=O)C1=O | > 66.8 | 17.9 | > 75 | 41.3 | > 75 | 35.7 | > 19.5 | > 75 | > 75 | 33.1
21 | CC1CCC2(OC1)OC1C(O)C3C4CCC5CC(OC6OC(CO)C(OC7OC(CO)C(O)C(OC8OCC(O)C(O)C8O)C7OC7OC(CO)C(O)C(OC8OC(CO)C(O)C(O)C8O)C7O)C(O)C6O)C(O)CC5(C)C4CCC3(C)C1C2C (stereo not given) | > 100 | 6.7 | 3.19 | 2.68 | 4.34 | 3.66 | 15.1 | 10.2 | 9.8 | 3.6
22 | CC1=CCC[C@H]2[C@](C)(CC3=CC(=O)C(SCC(C)C)=CC3=O)[C@@H](C)CC[C@]12C | 30.8 | 22.9 | 35.8 | 16.7 | 34.6 | 25.5 | 6.19 | 42.3 | 31 | 36.6
23 | CN(C)CC1CCC(CN(C)C)C(=O)C1=O (stereo not given) | 6.15 | 33.2 | 20.9 | 3.82 | 29.9 | 11 | 4.96 | 26.7 | 47.2 | 3.5
24 | CC(C)Oc1cccc(N2C(Nc3ccccc3)=Nc3ccncc3S2(=O)=O)c1 | > 100 | 87.6 | 66.4 | > 100 | > 100 | > 100 | > 100 | > 100 | > 100 | 28.8
25 | Cc1c([C@H](C)[C@@H]2NC[C@@H](C)C[C@H]2O)ccc2c1C[C@H]1[C@H]2CC=C2C[C@@H](O)CC[C@@]21C | 40.6 | 43.9 | 54.5 | > 100 | 82.3 | 37.5 | 37.4 | 30.3 | 8.53 | 29.4
26 | Cc1cc(-c2nc3cccc(O)c3s2)ccc1N | > 100 | > 100 | 54.7 | 71.4 | 7.43 | 25.4 | 78.4 | > 100 | > 100 | 58.1
27 | CCCCCCCCOc1ccc(/C=C/C2=[N+](CCO)CCO2)cc1 | 4.87 | 13.8 | 14.5 | 19.7 | 17.5 | 25.1 | 9.27 | 8.13 | 14.9 | 5.69
28 | Cc1ncc(COP(=O)(O)O)c(/C=C2\SC(=S)NC2=O)c1O | > 100 | > 100 | > 100 | > 100 | > 100 | > 100 | > 100 | > 100 | > 100 | > 100
29 | O=C(c1ccc(Cl)cc1)N1CCN=C1c1cc2ccccc2c2ccccc12 | 95.8 | 29.2 | 33.6 | 35.7 | 30.5 | 31.5 | > 100 | 30.5 | 28 | 29.5
